# Structures can show the parent of a compound that is named as a salt.
# Experiments:
# solubility in saline = type: physicochemical
# [1] = test system: spontaneous recurrent seizures; assay: spontaneous recurrent seizures (SRS) model of epilepsy; type: in vivo, Sprague-Dawley rat; details: for effective in decreasing seizures by at least 50%: administered at Time 1 (Day 1, after status epilepticus, before onset of SRS); for effective in decreasing seizures by at least 50% / effective in decreasing seizures (seizure frequency) by at least 50%: 20 mg/kg/day i.v. for 10 days; for effective in decreasing seizures (seizure frequency) by at least 50%: administered at Time 2 (Day 30, established SRS)
# Protocol: The “spontaneous recurrent seizures” (SRS) model of epilepsy was used to evaluate candidate compounds in a model for Phase 1 epileptogenesis (see, e.g., Mello, E. et al., Epilepsia (1993) 34:985; Cavalheiro, J. et al., Epilepsia (1991) 32:778). In the SRS model, an adult male Sprague-Dawley rat (c. 260 g) is given pilocarpine by injection (380 mg/kg i.p.). Within 25 minutes, the animal enters status epilepticus, which typically lasts for 15-20 hours (although about 10% of animals die at this stage). The rat is allowed to spontaneously recover and is given food and water ad lib. and maintained on a 12 hour/12 hour light/dusk cycle. Rats are usually studied in groups of four. Beginning on about day 13-15, the rats develop spontaneous recurrent seizures, which occur at the rate of about 4-5 per week. The rats are videotaped 24 hours per day, and the videotapes are reviewed for behavioral seizures (including head nodding, forelimb clonus, and rearing), which are counted. The animals are watched for three months, permitting evaluation of a sufficient number of seizures. […] Administration of the candidate compound at Time 1 permits evaluation for anti-epileptogenic properties (ability to prevent the onset of seizures); administration of compounds at Time 2 permits evaluation of drugs as anti-ictogenics with the ability to suppress established seizures.
# As a reference, the standard anticonvulsant phenytoin was administered (20 mg/kg/day i.v. for 10 day) at either Time 1 or Time 2.
# mice = assay: testing of dioxapiperazine compounds in mice (Example 7); type: in vivo; parameters: key to Activity: 300 mg/kg / Activity: 100 mg/kg / Activity: 30 mg/kg: 0 (inactive); 1: Activity on scale of 0 (inactive) to 4.; 2: Activity on scale of 0 (inactive) to 4.; 3: Activity on scale of 0 (inactive) to 4.; Activity on scale of 0 (inactive) to 4; details: for Activity: 100 mg/kg / Activity: 300 mg/kg / Activity: 30 mg/kg: mice, 30 minutes and four hours after administration; for anti-convulsive activity: animal model system of Table 4, in words
# Protocol: (§1) Selected compounds were dissolved in 0.9% NaCl or suspended in a mixture of 30% polyethylene glycol 400 and 70% water, and tested in an animal model. Briefly, the compounds were administered intraperitoneally or or orally to carsworth Farms #1 mice (in a volume of 0.01 ml/g of body weight) or Sprague-Dawley rats (in a volume of 0.004 ml/g body weight). Times on peak effect and peak neurologic deficit were determined before the anticonvulsant tests were administered.
# (§2) The maximal electroshock seizure test (MES), corneal electrodes primed with a drop of electrolyte solution (0.9% NaCl) were applied to the eyes of the animal and an electrical stimulus (50 mA for mice, 150 mA for rats; 60 Hz) was delivered for 0.2 second at the time of the peak effect of the test compound. The animals were restrained by hand and released at the moment of stimulation in order to permit observation of the seizure.
# (§3) In the subcutaneous pentylenetetrazol threshold test (scMet), the convulsant dose (CD97) of pentylenetetrazol (85 mg/kg in rats) was injected at the time of peak effect of the test compound. The animals were isolated and observed for 30 minutes to see whether seizures occurred.
# (§4) Acute anti-convulsant drug-induced toxicity in lab animals is usually characterized by some type of neurologic abnormality. In mice, these abnormalities can be detected by the rotorod ataxia test, which is somewhat less useful in rats. In the rotorod ataxia test, neurologic deficit is indicated by the inability of the animal to maintain equilibrium for at least one minute on a knurled rod rotating at 6 rpm. […] Inability to return the leg to normal position indicates a neurologi deficit.
# Testing of the compounds was performed in 12 mice at doses of 30, 100, 300 mg/kg (4 mice each) 30 minutes and four hours after the test compounds was administered.
# [2] = test system: MES-induced seizure; pentylenetetrazol induced seizure; assay: biological activity per Example 6 (MES, scMet anticonvulsant tests); type: in vivo, carsworth Farms #1 mice or Sprague-Dawley rats; details: tested per Example 6
# Protocol: as §1, §2, §3, §4
Compound,Activity: 100 mg/kg (mice),Activity: 300 mg/kg (mice),further results
Cc1ccc(C(CC(=O)O)NCl)cc1 (stereo not shown),,,"solubility (solubility in saline): 7.2-7.1 (M, 4H)4.17-4.09(t, 1H, 7.4 Hz)2.39-2.46 (m, 2H)solubility: ~10 mg/mlsaline"
O=C(O)CC(NCl)c1ccc(Cl)cc1 (stereo not shown),,,"solubility (solubility in saline): 7.3-7.17 (s, 4H)4.07-4.17 (t, 7H, 7.2 Hz)2.45-2.55 (dt, 4.5 Hz, 3.5Hz)solubility: ~10 mg/mlsaline"
"NC(CC(=O)O)c1ccccc1 (stereo not drawn) [Compound B5P91, β-Phenyl-β-alanine]",,,"solubility (solubility in saline): 7.35-7.2 (s, 5H)4.45 (t, 1H, 7.3 Hz)2.8-2.1 (m, 2H)solubility: ~10 mg/mlsaline"
"CC(C)(C)C1CCC(C(CN)C(=O)O)CC1.Cl (stereo not drawn) [Compound B5P127, α-(4-tert-Butylcyclohexyl)-β-alanine Hydrochloride Salt]",,,effective in decreasing seizures by at least 50% [1]: 75%; effective in decreasing seizures (seizure frequency) by at least 50% [1]: 50%
CC1NC(=O)C(c2ccc(O)cc2)NC1=O [c/D-(p-OH)-Peg-L-Ala],0,0,
NCCCCC1NC(=O)C(c2ccc(O)cc2)NC1=O [c/D-(p-OH)-Peg-L-Lys],0,0,
NCCCCC1NC(=O)C(c2ccccc2)NC1=O [c/D-Peg-D-Lys],0,0,
CSCCC1NC(=O)C(c2ccccc2)NC1=O [c/D-Peg-D-Met],0,0,
NCCC[C@H]1NC(=O)[C@@H](c2ccccc2)NC1=O [c/D-Peg-D-Orn],0,0,
O=C1CNC(=O)[C@@H](c2ccccc2)N1 [c/D-Peg-Gly],1,2,Activity: 30 mg/kg (mice): 0
"C[C@@H]1NC(=O)[C@@H](c2ccccc2)NC1=O [c/D-Peg-L-Ala, Cyclo-D-phenylglycine-L-alanine]",3,4,anti-convulsive activity (mice): strong anti-convulsive activity; Activity: 30 mg/kg (mice): 2
N=C(N)NCCC[C@@H]1NC(=O)[C@@H](c2ccccc2)NC1=O [c/D-Peg-L-Arg],0,0,
NCCCCC1NC(=O)C(c2ccccc2)NC1=O [c/D-Peg-L-Lys],0,1,
CSCCC1NC(=O)C(c2ccccc2)NC1=O [c/D-Peg-L-Met],0,1,
NCCCC1NC(=O)C(c2ccccc2)NC1=O [c/D-Peg-L-Ornithine (Orn)],0,0,
NCCC1NC(=O)C(c2ccccc2)NC1=O [c/D-Peg-L-diaminobutyric acid],0,0,
C[C@@H]1NC(=O)[C@H](c2ccccc2)NC1=O [c/L-Peg-L-Ala],0,0,
CC(C)CC1NC(=O)C(C)NC1=O [c/L-alanine-D-leucine],,,anti-convulsive activity (mice): active
O=C1NC(=O)C(c2ccccc2)(c2ccccc2)N1 [phenytoin],,,"preventing the onset of seizures ([1]; administered at Time 1, 20 mg/kg/day i.v. for 10 day): ineffective; effective in decreasing seizures (seizure frequency) by at least 50% [1]: 75%"
"COc1cc(C)c(C(N)CC(=O)O)cc1C (stereo not drawn) [β-2,5-dimethyl-4-methoxyphenyl-β-alanine]",,,biological activity [2]: at least weak activity
NC(CC(=O)O)c1cccc(C(F)(F)F)c1F (stereo not drawn) [β-2-fluoro-3-(trifluoromethyl)phenyl-β-alanine],,,biological activity [2]: moderate
COc1cccc(C(N)CC(=O)O)c1O (stereo not drawn) [β-2-hydroxy-3-methoxyphenyl-β-alanine],,,biological activity [2]: at least weak activity
COc1ccc(C(N)CC(=O)O)cc1C (stereo not drawn) [β-3-methyl-4-methoxyphenyl-β-alanine],,,biological activity [2]: slight
NCCC(=O)O [β-alanine],,,effective in decreasing seizures by at least 50% [1]: 75%; effective in decreasing seizures (seizure frequency) by at least 50% [1]: 50%
NC(CC(=O)O)c1ccc(OC(F)(F)F)cc1 (stereo not drawn) [β-p-(trifluoromethoxy)phenyl-β-alanine],,,biological activity [2]: at least weak activity
Cc1ccc(C(N)CC(=O)O)cc1 (stereo not drawn) [β-p-methylphenyl-β-alanine hydrochloride],,,biological activity [2]: at least weak activity
cyclo-D-phenylglycyl-(S-Me)-L-cysteine [c/D-Peg-L-(S-methyl)-L-cysteine],3,4,anti-convulsive activity (mice): strong anti-convulsive activity; Activity: 30 mg/kg (mice): 2
